Consider 26 compounds from ChEMBL document CHEMBL5107941, “Design and optimisation of a small-molecule TLR2/4 antagonist for anti-tumour therapy” (RSC Med Chem, 2021).

Toll-like receptor 4, sequence (O00206 whole entry): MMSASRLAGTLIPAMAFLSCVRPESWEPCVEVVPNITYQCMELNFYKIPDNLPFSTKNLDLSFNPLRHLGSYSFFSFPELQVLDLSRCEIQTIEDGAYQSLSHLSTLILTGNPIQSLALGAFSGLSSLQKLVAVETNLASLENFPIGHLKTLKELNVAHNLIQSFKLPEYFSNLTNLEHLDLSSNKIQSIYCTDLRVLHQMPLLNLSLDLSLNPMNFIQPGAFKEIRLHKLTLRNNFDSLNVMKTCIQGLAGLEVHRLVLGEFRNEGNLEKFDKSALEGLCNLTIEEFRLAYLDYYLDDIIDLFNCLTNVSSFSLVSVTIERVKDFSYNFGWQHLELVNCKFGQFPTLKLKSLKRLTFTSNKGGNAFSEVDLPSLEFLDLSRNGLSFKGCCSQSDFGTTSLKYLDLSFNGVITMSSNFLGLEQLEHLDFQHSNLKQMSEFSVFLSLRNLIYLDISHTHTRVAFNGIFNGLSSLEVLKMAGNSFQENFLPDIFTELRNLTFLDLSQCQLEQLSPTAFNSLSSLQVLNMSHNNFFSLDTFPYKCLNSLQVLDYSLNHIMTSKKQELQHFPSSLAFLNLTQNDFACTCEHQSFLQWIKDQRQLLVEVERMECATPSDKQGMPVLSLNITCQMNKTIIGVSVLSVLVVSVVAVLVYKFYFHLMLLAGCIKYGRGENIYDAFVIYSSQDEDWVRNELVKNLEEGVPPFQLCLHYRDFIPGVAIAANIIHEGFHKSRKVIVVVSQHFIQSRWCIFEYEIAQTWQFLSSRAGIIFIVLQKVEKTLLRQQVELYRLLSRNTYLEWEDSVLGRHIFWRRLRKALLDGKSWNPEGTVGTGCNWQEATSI

For one series, the target named is Toll-like receptor 2 (Homo sapiens, UniProt O60603). Put plainly: Antagonist activity at human TLR2 in HEK-Blue hTLR2 cells assessed as inhibition of Pam3CSK4-induced receptor activation preincubated with Pam3CSK4 followed by compound addition and measured 24 hrs by Quanti-Blue based SEAP reporter gene assay. Format: cell-based.
Toll-like receptor 2, sequence (O60603 whole entry): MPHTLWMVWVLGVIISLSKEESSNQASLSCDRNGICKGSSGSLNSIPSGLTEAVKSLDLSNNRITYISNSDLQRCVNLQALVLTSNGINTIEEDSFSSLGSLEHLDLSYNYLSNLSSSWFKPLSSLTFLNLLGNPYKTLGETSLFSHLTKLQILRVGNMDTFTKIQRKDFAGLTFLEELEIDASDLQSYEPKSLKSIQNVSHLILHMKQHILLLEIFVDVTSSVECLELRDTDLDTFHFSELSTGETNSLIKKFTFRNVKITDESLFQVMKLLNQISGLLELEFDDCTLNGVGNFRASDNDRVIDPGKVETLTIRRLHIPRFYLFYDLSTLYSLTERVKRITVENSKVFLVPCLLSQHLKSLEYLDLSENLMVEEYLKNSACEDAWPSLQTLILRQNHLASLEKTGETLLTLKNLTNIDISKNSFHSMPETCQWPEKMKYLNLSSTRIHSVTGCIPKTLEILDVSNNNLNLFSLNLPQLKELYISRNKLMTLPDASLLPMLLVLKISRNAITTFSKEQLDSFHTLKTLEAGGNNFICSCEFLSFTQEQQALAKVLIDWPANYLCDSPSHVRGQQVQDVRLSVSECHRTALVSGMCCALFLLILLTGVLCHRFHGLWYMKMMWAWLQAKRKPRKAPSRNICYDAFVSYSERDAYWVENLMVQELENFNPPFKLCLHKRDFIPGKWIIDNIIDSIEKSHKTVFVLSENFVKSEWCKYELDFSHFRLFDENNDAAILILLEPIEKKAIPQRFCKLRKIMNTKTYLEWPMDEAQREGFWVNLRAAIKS
Conditions: not given
For `O=[N+]([O-])/C=C/c1cccc(Oc2ccccn2)c1`, the IC50 (commonly the midpoint of a concentration-inhibition curve) worked out at 1.2 µM.
The same measure, in the same setting: for `CCOC(=O)c1ccc(COc2cccc(/C=C/[N+](=O)[O-])c2)nc1` the value was 12.3 µM.
The same measure, in the same setting: for `COc1ccc(COc2cccc(/C=C/[N+](=O)[O-])c2)cc1` the value was 4.4 µM; for `O=[N+]([O-])/C=C/c1cccc(Nc2ncccn2)c1`, 2.6 µM; for `O=[N+]([O-])/C=C/c1cccc(OCc2ccc(F)cc2)c1`, 5.5 µM.
For the compound `O=[N+]([O-])/C=C/c1cccc(OCc2ccncc2)c1`, the IC50 came out at 3.2 µM.
The same measure, in the same setting: for `O=[N+]([O-])/C=C/c1cccc(Oc2ccccc2)c1` the value was 3.4 µM.
The same measure, in the same setting: for `O=[N+]([O-])/C=C/c1cccc(OCc2ccccc2)c1` the value was 3.3 µM; for `O=[N+]([O-])/C=C/c1cccc(OCc2ccccn2)c1`, 1.1 µM; for `CCCCOc1cccc(/C=C/[N+](=O)[O-])c1`, 3.9 µM.
As for `O=[N+]([O-])/C=C/c1cccc(OCC2CC2)c1`, the IC50 was found to be 2.4 µM.
Same read-out and setting: for `O=[N+]([O-])/C=C/c1cccc(OCc2ccc3ccccc3c2)c1` the value was 5 µM.
With `CCCCOC(=O)c1ccc(COc2cccc(/C=C/[N+](=O)[O-])c2)nc1`, the concentration for half-maximal inhibition (IC50) came to 3.1 µM.
Still for that read-out and setting: in the case of `O=[N+]([O-])/C=C/c1cccc(OCc2ccc(Cl)cc2)c1` it was 4.3 µM; in that of `O=[N+]([O-])/C=C/c1ccccc1Oc1ccccc1`, 4.4 µM.

The next series addresses Toll-like receptor 4 (Homo sapiens, UniProt O00206). Briefly: Antagonist activity at human TLR4 in HEK-Blue hTLR4 cells assessed as inhibition of LPS-induced receptor activation preincubated with LPS followed by compound addition and measured 24 hrs by Quanti-Blue based SEAP reporter gene assay. In kind it is cell-based.
Conditions: not given
Background: A reporter such as luciferase makes a cellular process visible.
In the case of `O=[N+]([O-])/C=C/c1cccc(Oc2ccccn2)c1`, the concentration for half-maximal inhibition (IC50) stood at 1 µM.
Same read-out and setting: in the case of `CCOC(=O)c1ccc(COc2cccc(/C=C/[N+](=O)[O-])c2)nc1` it was 9.2 µM; in that of `CN(C)c1ccc(/C=C/[N+](=O)[O-])cc1Nc1ccccn1`, 3.7 µM; in that of `COc1ccc(COc2cccc(/C=C/[N+](=O)[O-])c2)cc1`, 5.6 µM.
The same measure, in the same setting: for `O=[N+]([O-])/C=C/c1cccc(Nc2ncccn2)c1` the value was 2.8 µM; for `O=[N+]([O-])/C=C/c1cccc(OCc2ccc(F)cc2)c1`, 4.2 µM; for `O=[N+]([O-])/C=C/c1cccc(Oc2nccs2)c1`, 2.4 µM.
On the same count and under the same terms, for `O=[N+]([O-])/C=C/c1cccc(OCC2CCCCC2)c1` the value was 5.9 µM.
As to `C/C(=C\[N+](=O)[O-])c1cccc(Oc2ccccc2)c1`, the IC50 worked out at 6.3 µM.
For the compound `O=[N+]([O-])/C=C/c1cccc(OCc2ccncc2)c1`, the IC50 came to 3.9 µM.
Same read-out and setting: in the case of `O=[N+]([O-])/C=C/c1cccc(Oc2ccccc2)c1` it was 4.3 µM; in that of `O=[N+]([O-])/C=C/c1cccc(OCc2ccccc2)c1`, 3.5 µM; in that of `O=[N+]([O-])/C=C/c1cccc(OCc2ccccn2)c1`, 1.4 µM.
The same measure, in the same setting: in the case of `CCCCOc1cccc(/C=C/[N+](=O)[O-])c1` it was 5.8 µM; in that of `O=[N+]([O-])/C=C/c1cccc(Oc2ncccn2)c1`, 6.2 µM; in that of `O=[N+]([O-])/C=C/c1cccc(OCC2CC2)c1`, 2.5 µM.
The same measure, in the same setting: in the case of `O=[N+]([O-])/C=C/c1cccc(OCc2ccc3ccccc3c2)c1` it was 4.4 µM; in that of `O=[N+]([O-])/C=C/c1cccc(-c2ccccn2)c1`, 0.28 µM; in that of `CCCCOC(=O)c1ccc(COc2cccc(/C=C/[N+](=O)[O-])c2)nc1`, 3.7 µM.
Take `CCCOC(=O)c1ccc(COc2cccc(/C=C/[N+](=O)[O-])c2)nc1`: the IC50 amounted to 5.9 µM.
On the same count and under the same terms, for `O=[N+]([O-])/C=C/c1cccc(Nc2cccnc2)c1` the value was 3.1 µM.
Still for that read-out and setting: for `O=[N+]([O-])/C=C/c1cccc(OCc2ccc(Cl)cc2)c1` the value was 4.8 µM; for `O=[N+]([O-])/C=C/c1ccc(Oc2ccccc2)cc1`, 6.5 µM.
Still for that read-out and setting: in the case of `O=C(Nc1ccccn1)c1cccc(/C=C/[N+](=O)[O-])c1` it was 3.6 µM; in that of `O=[N+]([O-])/C=C/c1cccc(Nc2ccccn2)c1`, 0.46 µM.

System in a further series: not listed separately
Briefly: Cytotoxicity against HEK-Blue hTLR2 cells assessed as lethal dose measured after 24 hrs by CCK-8 assay. The note with it: human, read-out: LD50. Format: toxicity, cell-based. Background: Formazan colour is commonly taken as a measure of viable cells.
On to `O=[N+]([O-])/C=C/c1cccc(Nc2ccccn2)c1`, for which the CC50 at 24 h is 28 µM.

System in the next series: not listed separately
Briefly: Cytotoxicity against HEK-Blue hTLR4 cells assessed as lethal dose measured after 24 hrs by CCK-8 assay. Format: toxicity, cell-based. The note with it: human, read-out: LD50.
In the case of `O=[N+]([O-])/C=C/c1cccc(Nc2ccccn2)c1`, the CC50 at 24 h amounted to 28 µM.

System in another series: not listed separately
Briefly: Cytotoxicity against mouse RAW264.7 cells assessed as lethal dose measured after 24 hrs by CCK-8 assay. In kind it is toxicity, cell-based. The note with it: read-out: LD50.
As to `O=[N+]([O-])/C=C/c1cccc(Nc2ccccn2)c1`, the CC50 at 24 h is 28 µM.
